Results as given in PubChem BioAssay (NCI).
Several values for one entry are separate records, joined by “and”; a condition that tells them apart may be missing. Equal values may be shown once.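 1) Cells in 96-well plates. 2) Compound, 48 h, 5 concentrations. 3) Linear interpolation between surrounding doses. 4) Unreached endpoint = highest concentration. Abbreviation: GI50, concentration required for 50% inhibition of growth. The concentration for full growth arrest is given as TGI.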

Experiments:
Assay in all cases: DTP human tumour cell line panel, 48 h
[1] = system: 786-0 renal
[2] = system: A498 renal
[3] = system: A549 NSCLC
[4] = system: ACHN renal
[5] = system: BT-549 breast
[6] = system: CCRF-CEM leukemia
[7] = system: COLO 205 colon
[8] = system: DU-145 prostate
[9] = system: EKVX NSCLC
[10] = system: HCC-2998 colon
[11] = system: HCT-116 colon
[12] = system: HCT-15 colon
[13] = system: HL-60(TB) leukemia
[14] = system: HOP-62 NSCLC
[15] = system: HOP-92 NSCLC
[16] = system: HS 578T breast
[17] = system: HT29 colon
[18] = system: IGROV1 ovarian
[19] = system: K-562 leukemia
[20] = system: KM12 colon
[21] = system: LOX IMVI melanoma
[22] = system: M14 melanoma
[23] = system: MALME-3M melanoma
[24] = system: MCF7 breast
[25] = system: MDA-MB-231 breast
[26] = system: MDA-MB-435
[27] = system: MOLT-4 leukemia
[28] = system: NCI-H226 lung
[29] = system: NCI-H23 lung
[30] = system: NCI-H460 lung
[31] = system: NCI-H522 lung
[32] = system: NCI/ADR-RES ovarian
[33] = system: OVCAR-3 ovarian
[34] = system: OVCAR-4 ovarian
[35] = system: OVCAR-5 ovarian
[36] = system: OVCAR-8 ovarian
[37] = system: PC-3 prostate
[38] = system: RPMI-8226 leukemia
[39] = system: RXF 393 renal
[40] = system: SF-268 CNS
[41] = system: SF-295 CNS
[42] = system: SF-539 CNS
[43] = system: SK-MEL-2 melanoma
[44] = system: SK-MEL-28 melanoma
[45] = system: SK-MEL-5 melanoma
[46] = system: SK-OV-3 ovarian
[47] = system: SN12C renal
[48] = system: SNB-19 CNS
[49] = system: SR leukemia
[50] = system: SW-620 colon
[51] = system: T-47D breast
[52] = system: TK-10 renal
[53] = system: U251 CNS
[54] = system: UACC-257 melanoma
[55] = system: UACC-62 melanoma
[56] = system: UO-31 renal

`COC(=O)N[C@H]1C=C[C@@H]2/C=C(C)/C=C/[C@@H](C)[C@H]([C@H](C)[C@H](O)[C@@H](C)NC(C)=O)OC(=O)/C=C/C=C(C)\C=C\[C@]2(C)C1` was tested, and the GI50 [1] was 16.5 nM and 7.46 nM, the TGI [1] was over 45300 nM and the GI50 [2] was 13.2 nM and 13.5 nM. For the same molecule, the GI50 [3] was 31.2 nM and 4.53 nM, the TGI [3] was over 45300 nM and the GI50 [4] was 4.53 nM. For the same molecule, the TGI [4] was over 45300 nM, the GI50 [5] was 18.7 nM and 12.6 nM and the TGI [5] was 42100 nM. For the same molecule, the GI50 [6] was 2580 nM, the TGI [6] was over 45300 nM and the GI50 [7] was 14 nM and 11.3 nM. For the same molecule, the TGI [7] was 7070 nM, the TGI [8] was over 45300 nM and the TGI [9] was over 45300 nM. The TGI [10] was over 45300 nM, the GI50 [11] was 3.71 nM and 4.53 nM and the TGI [11] was over 45300 nM. The GI50 [12] was 8.93 nM and 7.36 nM, the TGI [12] was over 45300 nM and the GI50 [13] was 7.22 nM and 5.48 nM. The TGI [13] was 19600 nM, the GI50 [14] was 70.5 nM and 27.8 nM and the TGI [14] was over 45300 nM. For the same molecule, the GI50 [15] was 2.11 nM and 4.53 nM, the TGI [15] was 44 nM and 26.8 nM and the GI50 [16] was 29.3 nM and 16.5 nM. The TGI [16] was over 45300 nM, the GI50 [17] was 6.18 nM and 4.53 nM and the TGI [17] was over 45300 nM. For the same molecule, the GI50 [18] was 24.8 nM and 4.53 nM, the TGI [18] was over 45300 nM and the GI50 [19] was 14.6 nM. For the same molecule, the TGI [19] was over 45300 nM, the GI50 [20] was 9.59 nM and 13.5 nM and the TGI [20] was over 45300 nM. The GI50 [21] was 2.94 nM and 4.53 nM, the TGI [21] was 11 nM and 4.75 nM and the GI50 [22] was 3.69 nM and < 4.53 nM. The TGI [22] was 35.8 nM and < 4.53 nM, the GI50 [23] was 1190 nM and 261 nM and the TGI [23] was 10800 nM. The GI50 [24] was 8.26 nM and 4.53 nM, the TGI [24] was over 45300 nM and the GI50 [25] was 2.28 nM and 4.53 nM. The GI50 [26] was 3.74 nM and 4.53 nM, the TGI [26] was 10600 nM and the GI50 [27] was 8510 nM. The TGI [27] was over 45300 nM, the GI50 [28] was 28.3 nM and 5.04 nM and the TGI [28] was 9150 nM. The GI50 [29] was 94.3 nM and 96.4 nM, the TGI [29] was over 45300 nM and the GI50 [30] was 13.5 nM and 6.97 nM. For the same molecule, the TGI [30] was over 45300 nM, the GI50 [31] was 61.3 nM and 38.8 nM and the TGI [31] was 19200 nM. For the same molecule, the GI50 [32] was 28.2 nM and 16.1 nM, the TGI [32] was over 45300 nM and the GI50 [33] was 172 nM and 635 nM. The TGI [33] was 16500 nM, the GI50 [34] was 5920 nM and the TGI [34] was over 45300 nM. For the same molecule, the GI50 [35] was 8010 nM and 6550 nM, the TGI [35] was over 45300 nM and the GI50 [36] was 17.9 nM and 7.45 nM. The TGI [36] was over 45300 nM, the GI50 [37] was 7.85 nM and 4.53 nM and the TGI [37] was over 45300 nM. For the same molecule, the GI50 [38] was 17.3 nM and 4.59 nM, the TGI [38] was 21000 nM and the GI50 [39] was 4.49 nM and 4.53 nM. The TGI [39] was 16200 nM, the TGI [40] was over 45300 nM and the GI50 [41] was 3.71 nM and 4.53 nM. For the same molecule, the GI50 [42] was 4.13 nM and 4.53 nM, the TGI [42] was 6550 nM and the GI50 [43] was 7190 nM. The TGI [43] was 33100 nM, the GI50 [44] was 12.1 nM and 10.2 nM and the TGI [44] was 13300 nM. The GI50 [45] was 3.65 nM and 4.53 nM, the TGI [45] was 29.1 nM and 15 nM and the GI50 [46] was 6.7 nM. For the same molecule, the GI50 [47] was 8.13 nM and 5.18 nM, the TGI [47] was over 45300 nM and the GI50 [48] was 118 nM and 16.4 nM. The TGI [48] was over 45300 nM, the GI50 [49] was 7 nM and 4.53 nM and the TGI [49] was 13400 nM. The GI50 [50] was 8.92 nM and 4.53 nM, the TGI [50] was 16200 nM and the GI50 [51] was 6.96 nM and 4.53 nM. For the same molecule, the TGI [51] was over 45300 nM, the GI50 [52] was 5120 nM and 5680 nM and the TGI [52] was over 45300 nM. For the same molecule, the GI50 [53] was 4.72 nM and 4.53 nM, the TGI [53] was 24700 nM and the GI50 [54] was 29 nM and 4.53 nM. The TGI [54] was over 45300 nM, the GI50 [55] was 18.9 nM and 19.6 nM and the TGI [55] was 8920 nM. For the same molecule, the GI50 [56] was 7.47 nM and 4.53 nM and the TGI [56] was 28700 nM.
